# Measurements published in patent US20050106592A1, “Method for identifying a pharmacologically active substance” (priority 2002, published 2005).
# Tests used:
# [1] = molecular target: T1, ACE from pig kidney (EC 3.4.15.1) (Sus scrofa, UniProt F1RRW5); type: biochemical; details: relative to Captopril
# T1 construct: angiotensin-converting-enzyme derived from pig kidney; purchased Sigma; host or cells: pig kidney (tissue-derived enzyme)
# T1 sequence (F1RRW5 34-1309): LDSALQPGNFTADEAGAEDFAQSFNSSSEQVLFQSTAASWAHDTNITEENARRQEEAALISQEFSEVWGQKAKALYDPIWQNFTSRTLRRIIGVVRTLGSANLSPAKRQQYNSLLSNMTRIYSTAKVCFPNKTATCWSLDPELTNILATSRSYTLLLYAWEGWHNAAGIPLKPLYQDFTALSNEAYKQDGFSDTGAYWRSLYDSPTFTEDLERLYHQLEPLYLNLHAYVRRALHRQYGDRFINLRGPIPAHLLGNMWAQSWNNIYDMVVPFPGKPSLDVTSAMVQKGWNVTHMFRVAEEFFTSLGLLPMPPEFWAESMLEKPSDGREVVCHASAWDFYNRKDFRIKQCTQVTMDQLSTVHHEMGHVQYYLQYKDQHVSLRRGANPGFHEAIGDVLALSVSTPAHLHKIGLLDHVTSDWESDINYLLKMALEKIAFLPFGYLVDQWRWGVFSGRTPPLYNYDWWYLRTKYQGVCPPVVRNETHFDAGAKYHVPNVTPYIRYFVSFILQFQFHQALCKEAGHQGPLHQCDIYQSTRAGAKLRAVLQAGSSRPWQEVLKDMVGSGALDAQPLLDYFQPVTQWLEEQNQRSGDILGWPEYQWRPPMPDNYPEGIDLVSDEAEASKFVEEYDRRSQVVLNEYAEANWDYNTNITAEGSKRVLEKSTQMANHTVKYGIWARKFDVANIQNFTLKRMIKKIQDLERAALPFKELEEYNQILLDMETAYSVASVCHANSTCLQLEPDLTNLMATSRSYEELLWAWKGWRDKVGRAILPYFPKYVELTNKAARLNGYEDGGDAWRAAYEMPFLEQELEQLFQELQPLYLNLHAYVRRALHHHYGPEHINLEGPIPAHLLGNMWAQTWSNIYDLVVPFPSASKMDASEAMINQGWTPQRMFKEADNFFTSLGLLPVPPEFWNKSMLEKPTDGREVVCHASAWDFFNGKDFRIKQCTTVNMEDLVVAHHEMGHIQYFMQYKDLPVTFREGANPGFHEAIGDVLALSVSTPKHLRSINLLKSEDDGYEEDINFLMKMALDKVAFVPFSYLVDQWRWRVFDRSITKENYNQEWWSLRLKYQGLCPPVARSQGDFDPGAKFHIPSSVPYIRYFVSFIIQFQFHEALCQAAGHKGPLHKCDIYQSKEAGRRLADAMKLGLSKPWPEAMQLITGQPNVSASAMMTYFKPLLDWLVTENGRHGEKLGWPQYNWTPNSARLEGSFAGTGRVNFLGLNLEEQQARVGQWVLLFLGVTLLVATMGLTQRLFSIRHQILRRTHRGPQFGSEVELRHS
# Protocol: These peptides were investigated for their inhibitory effect using an in vitro-ACE-inhibitor-assay with an angiotensin-converting-enzyme derived from pig kidney. Hippuryl-histidyl-leucin was used as a substrate.
# The assay was performed in 96 well HTRF-plates (Packard). The concentrations used for each well were: 1 mU ACE from pig kidney (EC 3.4.15.1 (Sigma)) in 30 μl of assay buffer (25 mM HEPES; 0,3 M NaCl, pH 8.2) and 20 μl inhibitor dissolved in assay buffer (0.35-200 μM). The reaction was started by adding 50 μl of 2 mM hippuryl-histidyl-leucin (Sigma) in assay buffer. The reaction was performed at room temperature (22° C.) for 30 minutes and terminated by adding 50 μl 1 M NaOH. Afterwards 50 μl of 0.5% ortho-phtalaldehyd (Sigma) in methanol were added, 5 minutes later followed by 50 μl of 2.5 M HCl-solution to stabilize the developed fluorescence product.
# The results were used to calculate the % inhibition. The IC50-values were determined graphically from a curve showing the dose-reaction ratio.
# In order to minimize errors due to time-dependent differences, all pipetting steps were performed in a precise time schedule.
# normotensive Wister rats = assay: bradykinin-potentiating effect: blood pressure measurement in anaesthetized normotensive rats; type: in vivo, rat
# Protocol: These experiments were conducted with normotensive rats and the short-time decrease of blood pressure induced by bradykinin (and caused by vasodilatation) was measured. […] Furthermore, S545 (also corresponds to proANP48-57) was also tested in vivo at hypertensive rats (FIG. 7).
# In the in vivo experiments with normotensive rats the animals were previously anaesthetized and after blood pressure stabilization treated with a constant amount of bradykinin. Subsequently, either Captopril or human BPP were administered, again followed by a constant amount of bradykinin. Afterwards the maximal blood pressure drop was determined and, on the basis of bradykinin as a factor 1, the potentiating factor was determined. In the same way, the systolic and diastolic blood pressure, the percentage middle pressure decrease and the time required to come back to the baseline values were measured (see tables 4a to 4j). A detailed experimental description is given below.
# The trials were conducted on female anaesthetized normotensive Wister rats with weight ranging from 210 to 240 g.
# The peptide pANP48-57 used for the in vivo assays was synthesized by Biosynthan (Berlin) with a HPLC-determined purity of 98%. […]
# The middle pressure was determined from the measured diastolic (pd) and systolic (ps) blood pressure by using the following formula: pm=(ps−pd)×0.42+pd.
smiles,measurement,setting,value
CC(C)C[C@H](NC(=O)[C@H](C)N)C(=O)N[C@@H](CO)C(=O)N1CCC[C@H]1C(=O)N[C@@H](CC(C)C)C(=O)N1CCC[C@H]1C(=O)N[C@@H](CCC(=O)O)C(=O)N[C@H](C(=O)N1CCC[C@H]1C(=O)N1CCC[C@H]1C(=O)O)C(C)C [Peptide S545],dose necessary in the ACE-assay to reach the same effect as with Captopril,[1],1000 fold
same,molecular concentration required for the bradykinin-potentiating effect in vivo in comparison to Captopril,"normotensive Wister rats; in vivo, relative to Captopril",10 fold
same,bradykinin-potentiating effect (short-time decrease of blood pressure induced by bradykinin),"normotensive Wister rats; normotensive rats, anaesthetized, i.v.",concentration dependent bradykinin-potentiating
